Patent US20090181889A1, “COMPOSITIONS AND METHODS FOR DETECTION AND TREATMENT OF HUMAN HERPESVIRUS (HHV)-6” (priority 2006, published 2009)

Tests used:
HHV-6B U51 [1] = biological target: T1, HHV-6B U51 (Human herpesvirus 6B, UniProt P52542); format: binding
[2] = test system: wild-type 293 cells (HEK 293 cell membranes); assay: [35S]GTPγS binding to native (wild-type) HEK293 cell membranes; format: biochemical, human; settings: binding without compound = 100%, three experiments
HHV-6B U51 [3] = biological target: T1, HHV-6B U51; format: biochemical; settings: HHV-6B U51 HEK293 membranes; for % Control [35S]GTPγS binding ± SEM, U51 (+Tet): induced with 1 μg/ml tetracycline 24 h; for % Control [35S]GTPγS binding ± SEM, U51 (Unind): no tetracycline (uninduced)
HHV-6B U51 [4] = biological target: T2, HHV-6B U51 (Human herpesvirus 6B, UniProt P52542); format: biochemical; settings: HHV-6B U51 HEK293 membranes; for % Control [35S]GTPγS binding ± SEM, U51 (+Tet): induced with 1 μg/ml tetracycline 24 h; for % Control [35S]GTPγS binding ± SEM, U51 (Unind): no tetracycline (uninduced); remark: listed apart in the source
T2 sequence (P52542 whole entry, looked up): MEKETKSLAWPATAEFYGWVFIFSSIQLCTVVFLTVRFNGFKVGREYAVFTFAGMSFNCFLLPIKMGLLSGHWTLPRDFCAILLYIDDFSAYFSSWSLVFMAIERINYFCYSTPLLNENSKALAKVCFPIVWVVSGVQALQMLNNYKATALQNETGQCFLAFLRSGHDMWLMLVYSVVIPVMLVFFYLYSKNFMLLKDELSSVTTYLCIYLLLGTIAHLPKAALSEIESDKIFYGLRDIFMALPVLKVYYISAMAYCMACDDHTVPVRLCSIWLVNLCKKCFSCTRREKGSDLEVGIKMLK

[5] = test system: herpesviruses serine proteases; settings: cited from earlier work
U51 = biological target: T3, U51 (Human herpesvirus 6A, UniProt P52382); settings: Fitzsimons C P, et al. 2005; cited from earlier work
T3 sequence (P52382 1-301): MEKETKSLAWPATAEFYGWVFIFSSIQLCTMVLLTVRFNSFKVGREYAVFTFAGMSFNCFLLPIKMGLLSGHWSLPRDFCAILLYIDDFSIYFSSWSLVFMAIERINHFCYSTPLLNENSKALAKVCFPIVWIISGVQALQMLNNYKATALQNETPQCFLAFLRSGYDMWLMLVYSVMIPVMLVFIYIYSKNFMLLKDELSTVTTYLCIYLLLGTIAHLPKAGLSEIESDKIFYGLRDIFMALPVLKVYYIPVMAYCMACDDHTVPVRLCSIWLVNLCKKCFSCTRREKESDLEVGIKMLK

HHV-6 U51 = biological target: T4, HHV-6 U51 (Human herpesvirus 6A, UniProt P52382); settings: Beisser, et al. 1998; cited from earlier work
T4 sequence (P52382 1-301): T3 sequence (P52382 1-301)

[6] = test system: human μ, δ, or κ opioid receptor; assay: [35S]GTPγS binding to control CHO cell membranes with opioid receptors; format: biochemical; settings: CHO cells stably transfected with human μ, Emax obtained at opioid concentration less than 1 μM
HEK293 cells = format: cell-based, human

For `CCC12CCN(CC3(O)CC3)C(Cc3ccc(O)cc31)C2(C)C` (centres unmarked) [[^3H]bremazocine], the “specific binding of radiolabelled opioid to HHV-6B U51 membranes” value (“specific binding of radiolabelled opioid” below) (HHV-6B U51 [1]) was “did not specifically bind”.

In the case of `Oc1ccc2c3c1O[C@H]1c4[nH]c5ccccc5c4C[C@@]4(O)[C@@H](C2)N(CC2CC2)CC[C@]314` [Naltrindole, naltrindole], the “% Control [35S]GTPγS binding ± SEM, Native” value [2] is reported as 96 ± 4%, the “% Control [35S]GTPγS binding ± SEM, U51 (+Tet)” value (HHV-6B U51 [3]) is reported as 97 ± 4% and the “% Control [35S]GTPγS binding ± SEM, U51 (Unind)” value (HHV-6B U51 [3]) is reported as 98 ± 4%.

In the case of MCP-3: chemokine ligand, the “% Control [35S]GTPγS binding ± SEM, Native” value [2] is reported as 97 ± 3%, the “% Control [35S]GTPγS binding ± SEM, U51 (+Tet)” value (HHV-6B U51 [4]) is reported as 103 ± 2% and the “% Control [35S]GTPγS binding ± SEM, U51 (Unind)” value (HHV-6B U51 [4]) is reported as 109 ± 9%.

With Interleukin-8: chemokine ligand the “% Control [35S]GTPγS binding ± SEM, Native” value [2] was 101 ± 5%, the “% Control [35S]GTPγS binding ± SEM, U51 (+Tet)” value (HHV-6B U51 [4]) was 96 ± 3% and the “% Control [35S]GTPγS binding ± SEM, U51 (Unind)” value (HHV-6B U51 [4]) was 96 ± 2%.

In the case of `O=S(=O)(F)Cc1ccccc1` [PMSF, phenylmethylsulphonyi fluoride], the “inhibition of herpesvirus serine proteases” value [5] is listed as “weakly inhibited”.

In the case of `CC(C)[C@H](NC(=O)[C@H](CCC(=O)O)NC(=O)[C@H](Cc1ccccc1)NC(=O)[C@@H](C)NC(=O)[C@@H](N)Cc1ccc(O)cc1)C(=O)N[C@H](C(=O)NCC(N)=O)C(C)C` [Deltorphin II], the “% Control [35S]GTPγS binding ± SEM, U51 (+Tet)” value (HHV-6B U51 [3]) is reported as 91 ± 6% and the “% Control [35S]GTPγS binding ± SEM, U51 (Unind)” value (HHV-6B U51 [3]) is reported as 98 ± 2%.

With `C[C@@H](NC(=O)[C@@H](N)Cc1ccc(O)cc1)C(=O)NCC(=O)N(C)[C@@H](Cc1ccccc1)C(=O)NCCO` [[^3H]DAMGO] the “specific binding of radiolabelled opioid” value (HHV-6B U51 [1]) was “did not specifically bind”.

In the case of CCL11: chemokine, the “action at U51” value (U51) is listed as “agonists”.

In the case of RANTES: β-chemokine (CC-chemokine), the “binding affinity to HHV-6 U51” value (HHV-6 U51) is listed as “nanomolar affinity”, the “% Control [35S]GTPγS binding ± SEM, Native” value [2] is listed as 101 ± 2% and the “% Control [35S]GTPγS binding ± SEM, U51 (+Tet)” value (HHV-6B U51 [4]) is listed as 104 ± 2%. For the same molecule, the “% Control [35S]GTPγS binding ± SEM, U51 (Unind)” value (HHV-6B U51 [4]) was 111 ± 1% and the “action at U51” value (U51) was “agonists”.

With DPDPE the “Control Cell Emax, % Control [35S]GTPγS binding ± SEM” value [6] was 254 ± 16%, the “% Control [35S]GTPγS binding ± SEM, Native” value [2] was 104 ± 1% and the “% Control [35S]GTPγS binding ± SEM, U51 (+Tet)” value (HHV-6B U51 [3]) was 99 ± 2%. For the same molecule, the “% Control [35S]GTPγS binding ± SEM, U51 (Unind)” value (HHV-6B U51 [3]) was 96 ± 1%.

For `CN1CC[C@]23c4c5ccc(O)c4O[C@H]2[C@@H](O)C=C[C@H]3[C@H]1C5` [Morphine, morphine], the “% Control [35S]GTPγS binding ± SEM, Native” value [2] was 99 ± 9%, the “% Control [35S]GTPγS binding ± SEM, U51 (+Tet)” value (HHV-6B U51 [3]) was 91 ± 9% and the “% Control [35S]GTPγS binding ± SEM, U51 (Unind)” value (HHV-6B U51 [3]) was 99 ± 0.9%.

In the case of “kappa opioid receptor: rat kappa opioid receptor expression plasmid, negative control”, the “cell fusion activity compared to cells transfected with VSV-G alone” value (HEK293 cells) is reported as “no effect”.

With `Oc1ccc2c3c1O[C@H]1c4[nH]c5ccccc5c4C[C@@]4(O)[C@@H](C2)N(CC2CC2)CC[C@]314` [[^3H]naltrindole] the “specific binding of radiolabelled opioid” value (HHV-6B U51 [1]) was “did not specifically bind”.

In the case of CCL2: chemokine, the “action at U51” value (U51) is listed as “agonists”.

With `C[C@@H](NC(=O)[C@@H](N)Cc1ccc(O)cc1)C(=O)NCC(=O)N(C)[C@@H](Cc1ccccc1)C(=O)NCCO` [DAMGO] the “Control Cell Emax, % Control [35S]GTPγS binding ± SEM” value [6] was 216 ± 4.4%, the “% Control [35S]GTPγS binding ± SEM, Native” value [2] was 106 ± 4% and the “% Control [35S]GTPγS binding ± SEM, U51 (+Tet)” value (HHV-6B U51 [3]) was 86 ± 6%. For the same molecule, the “% Control [35S]GTPγS binding ± SEM, U51 (Unind)” value (HHV-6B U51 [3]) was 96 ± 3%.

In the case of “US28: human cytomegalovirus 7-transmembrane protein, expressed from plasmid as positive control”, the “cell fusion activity compared to cells transfected with VSV-G alone” value (HEK293 cells) is reported as ~3 fold.

B1: Lymphotactin: chemokine ligand (protein)
chain: VGSEVSDKRTCVSLTTQRLPVSRIKTYTITEGSLRAVIFITKRGLKVCADPQATWVRDVVRSMDRKSNTRNNMIQTKPTGTQQSTNTAVTLTG
In the case of B1, the “% Control [35S]GTPγS binding ± SEM, Native” value [2] is reported as 97 ± 2%, the “% Control [35S]GTPγS binding ± SEM, U51 (+Tet)” value (HHV-6B U51 [4]) is reported as 104 ± 7% and the “% Control [35S]GTPγS binding ± SEM, U51 (Unind)” value (HHV-6B U51 [4]) is reported as 99 ± 3%.
